From PubChem BioAssay (NCI)
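All cell lines were grown in 96-well plates and treated with compound for 48 hours. Here, GI50 denotes the concentration required for 50% inhibition of growth. TGI: total growth inhibition.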

How the values were obtained:
Experiment in all cases: NCI-60 cell line screen, 48 h
786-0 renal = test system: 786-0 renal
MCF7 breast = test system: MCF7 breast
M14 melanoma = test system: M14 melanoma
SK-MEL-2 melanoma = test system: SK-MEL-2 melanoma
MOLT-4 leukemia = test system: MOLT-4 leukemia
A549 NSCLC = test system: A549 NSCLC
ACHN renal = test system: ACHN renal
HCC-2998 colon = test system: HCC-2998 colon
NCI-H23 lung = test system: NCI-H23 lung
TK-10 renal = test system: TK-10 renal
OVCAR-5 ovarian = test system: OVCAR-5 ovarian
LOX IMVI melanoma = test system: LOX IMVI melanoma
HT29 colon = test system: HT29 colon
COLO 205 colon = test system: COLO 205 colon
HOP-92 NSCLC = test system: HOP-92 NSCLC
HL-60(TB) leukemia = test system: HL-60(TB) leukemia
U251 CNS = test system: U251 CNS
NCI-H522 lung = test system: NCI-H522 lung
SNB-19 CNS = test system: SNB-19 CNS
OVCAR-3 ovarian = test system: OVCAR-3 ovarian
CAKI-1 renal = test system: CAKI-1 renal
BT-549 breast = test system: BT-549 breast
CCRF-CEM leukemia = test system: CCRF-CEM leukemia
K-562 leukemia = test system: K-562 leukemia
NCI-H460 lung = test system: NCI-H460 lung
SK-MEL-28 melanoma = test system: SK-MEL-28 melanoma
SNB-75 CNS = test system: SNB-75 CNS
UACC-62 melanoma = test system: UACC-62 melanoma
T-47D breast = test system: T-47D breast
UO-31 renal = test system: UO-31 renal
HS 578T breast = test system: HS 578T breast
HOP-62 NSCLC = test system: HOP-62 NSCLC
SR leukemia = test system: SR leukemia
NCI-H226 lung = test system: NCI-H226 lung
HCT-15 colon = test system: HCT-15 colon
EKVX NSCLC = test system: EKVX NSCLC
SN12C renal = test system: SN12C renal
SW-620 colon = test system: SW-620 colon
MALME-3M melanoma = test system: MALME-3M melanoma
SF-268 CNS = test system: SF-268 CNS
NCI/ADR-RES ovarian = test system: NCI/ADR-RES ovarian
MDA-MB-231 breast = test system: MDA-MB-231 breast
IGROV1 ovarian = test system: IGROV1 ovarian
SK-MEL-5 melanoma = test system: SK-MEL-5 melanoma
RXF 393 renal = test system: RXF 393 renal
UACC-257 melanoma = test system: UACC-257 melanoma
PC-3 prostate = test system: PC-3 prostate
DU-145 prostate = test system: DU-145 prostate
SF-539 CNS = test system: SF-539 CNS
KM12 colon = test system: KM12 colon
RPMI-8226 leukemia = test system: RPMI-8226 leukemia
OVCAR-4 ovarian = test system: OVCAR-4 ovarian
SF-295 CNS = test system: SF-295 CNS
SK-OV-3 ovarian = test system: SK-OV-3 ovarian
HCT-116 colon = test system: HCT-116 colon
MDA-MB-435 = test system: MDA-MB-435
OVCAR-8 ovarian = test system: OVCAR-8 ovarian

O=S(=O)(Nc1cc(F)cc(F)c1)c1ccc(-c2cnc(C3CC3)o2)cc1
GI50 (786-0 renal): 5.05 µM | TGI (786-0 renal): > 100 µM | GI50 (MCF7 breast): 1.45 µM | TGI (MCF7 breast): > 100 µM | GI50 (M14 melanoma): 1.85 µM | TGI (M14 melanoma): > 100 µM | GI50 (SK-MEL-2 melanoma): 4.51 µM | TGI (SK-MEL-2 melanoma): 41.6 µM | GI50 (MOLT-4 leukemia): 3.73 µM | TGI (MOLT-4 leukemia): > 100 µM | GI50 (A549 NSCLC): 3.8 µM | TGI (A549 NSCLC): > 100 µM | GI50 (ACHN renal): 4.92 µM | TGI (ACHN renal): > 100 µM | GI50 (HCC-2998 colon): 5.62 µM | TGI (HCC-2998 colon): 44.2 µM | GI50 (NCI-H23 lung): 4.55 µM | TGI (NCI-H23 lung): 77.1 µM | GI50 (TK-10 renal): 8.65 µM | TGI (TK-10 renal): 68.7 µM | GI50 (OVCAR-5 ovarian): 6.12 µM | TGI (OVCAR-5 ovarian): > 100 µM | GI50 (LOX IMVI melanoma): 4.34 µM | TGI (LOX IMVI melanoma): > 100 µM | GI50 (HT29 colon): 1.76 µM | TGI (HT29 colon): 12.9 µM | GI50 (COLO 205 colon): 2.08 µM | TGI (COLO 205 colon): 12.3 µM | GI50 (HOP-92 NSCLC): 1.68 µM | TGI (HOP-92 NSCLC): 11.4 µM | GI50 (HL-60(TB) leukemia): 2.12 µM | TGI (HL-60(TB) leukemia): 13.8 µM | GI50 (U251 CNS): 3.28 µM | TGI (U251 CNS): > 100 µM | GI50 (NCI-H522 lung): 2.03 µM | TGI (NCI-H522 lung): 40.4 µM | GI50 (SNB-19 CNS): 3.73 µM | TGI (SNB-19 CNS): > 100 µM | GI50 (OVCAR-3 ovarian): 1.57 µM | TGI (OVCAR-3 ovarian): 15.6 µM | GI50 (CAKI-1 renal): 1.19 µM | TGI (CAKI-1 renal): 38.4 µM | GI50 (BT-549 breast): 3.33 µM | TGI (BT-549 breast): 46.7 µM | GI50 (CCRF-CEM leukemia): 2.44 µM | TGI (CCRF-CEM leukemia): > 100 µM | GI50 (K-562 leukemia): 0.582 µM | TGI (K-562 leukemia): > 100 µM | GI50 (NCI-H460 lung): 2.64 µM | TGI (NCI-H460 lung): 21.4 µM | GI50 (SK-MEL-28 melanoma): 13.3 µM | TGI (SK-MEL-28 melanoma): > 100 µM | GI50 (SNB-75 CNS): 1.05 µM | TGI (SNB-75 CNS): 3.98 µM | GI50 (UACC-62 melanoma): 0.94 µM | TGI (UACC-62 melanoma): 20 µM | GI50 (T-47D breast): 3.08 µM | TGI (T-47D breast): 79.9 µM | GI50 (UO-31 renal): 4.69 µM | TGI (UO-31 renal): > 100 µM | GI50 (HS 578T breast): 1.83 µM | TGI (HS 578T breast): 8.6 µM | GI50 (HOP-62 NSCLC): 2.6 µM | TGI (HOP-62 NSCLC): 33.6 µM | GI50 (SR leukemia): 0.513 µM | TGI (SR leukemia): > 100 µM | GI50 (NCI-H226 lung): 3.88 µM | TGI (NCI-H226 lung): 53 µM | GI50 (HCT-15 colon): 0.702 µM | TGI (HCT-15 colon): 47.9 µM | GI50 (EKVX NSCLC): 5.31 µM | TGI (EKVX NSCLC): > 100 µM | GI50 (SN12C renal): 4.87 µM | TGI (SN12C renal): 59.6 µM | GI50 (SW-620 colon): 1.12 µM | TGI (SW-620 colon): > 100 µM | GI50 (MALME-3M melanoma): 2.98 µM | TGI (MALME-3M melanoma): 70.1 µM | GI50 (SF-268 CNS): 6.73 µM | TGI (SF-268 CNS): 48.8 µM | GI50 (NCI/ADR-RES ovarian): 1.7 µM | TGI (NCI/ADR-RES ovarian): 68.1 µM | GI50 (MDA-MB-231 breast): 6.46 µM | TGI (MDA-MB-231 breast): 41.7 µM | GI50 (IGROV1 ovarian): 2.01 µM | TGI (IGROV1 ovarian): > 100 µM | GI50 (SK-MEL-5 melanoma): 3.27 µM | TGI (SK-MEL-5 melanoma): 13.1 µM | GI50 (RXF 393 renal): 1.66 µM | TGI (RXF 393 renal): 6.79 µM | GI50 (UACC-257 melanoma): 12.3 µM | TGI (UACC-257 melanoma): 52.9 µM | GI50 (PC-3 prostate): 1.99 µM | TGI (PC-3 prostate): > 100 µM | GI50 (DU-145 prostate): 4.11 µM | TGI (DU-145 prostate): > 100 µM | GI50 (SF-539 CNS): 2.52 µM | TGI (SF-539 CNS): 14.6 µM | GI50 (KM12 colon): 0.869 µM | TGI (KM12 colon): 32 µM | GI50 (RPMI-8226 leukemia): 3.44 µM | TGI (RPMI-8226 leukemia): 66.2 µM | GI50 (OVCAR-4 ovarian): 5.93 µM | TGI (OVCAR-4 ovarian): 90.9 µM | GI50 (SF-295 CNS): 1.29 µM | TGI (SF-295 CNS): 11.7 µM | GI50 (SK-OV-3 ovarian): 3.8 µM | TGI (SK-OV-3 ovarian): 42 µM | GI50 (HCT-116 colon): 3.04 µM | TGI (HCT-116 colon): > 100 µM | GI50 (MDA-MB-435): 0.305 µM | TGI (MDA-MB-435): 2.09 µM | GI50 (OVCAR-8 ovarian): 4.31 µM | TGI (OVCAR-8 ovarian): > 100 µM
